Consider twelve compounds from patent EP1611148B1, “NOVEL NITRILE GLYCOSIDE USEFUL AS A BIO-ENHANCER OF DRUGS AND NUTRIENTS, PROCESS OF ITS ISOLATION FROM MORINGA OLEIFERA” (Council of Scientific and Industrial Research, priority 2003, dated 2004).

Series [1] has as its system E.coli (CA8000). The following applies: 6 ug/mL.
Series [2] concerns B subtilis (MTCC121). Put plainly: Bioactivity enhancement of antibiotics (killing efficiency, broth assay) against B subtilis. The following applies: alone or with Niaziridin @ 1.0 µg/ml.
In series [3] the test system is M smegmatis (MC^2 155). Put plainly: Bioactivity enhancement of antibiotics (killing efficiency, broth assay) against M smegmatis. Conditions: alone or with Niaziridin @ 1.0 µg/ml.
Series [4] deals with C.albicans. Put plainly: Enhancement of anticandidial activity of clotrimazole (broth assay).
The test system of series [5] is Staphylococcus aurues. Conditions: in combination with 5-Methoxy hydnocarpin (5-MHC); cited from earlier work.
For series [6] the following is noted: anaesthetized rat, 1-10 mg/ kg I.V; cited from earlier work.
Series [7] relates to M.tuberculosis H37Rv (ATCC 27294). Put plainly: Bioactivity enhancement of anti-tubercular drugs, radiometric BACTEC 460 TB system. The series is classed as cell-based, Mycobacterium tuberculosis. From the text:
Since, the bioenhancer compound was able to enhance the activity of antibiotics against Gram (+) bacteria such as M.smegmatis, our subsequent interest was to test the compound against M.tuberculosis H37Rv (ATCC 27294) (Philipp et al 1996; Proc.Natl.Acad.Sci USA 93, 3132-3137), the causal organism of tuberculosis. To accomplish this we employed a radiometric assay using the BACTEC 460 TB system manufactured by M/S Becton Dickinson Ltd., USA. The antimycobacterial property of the drugs in combination with the bioenhancer was studied as per the recommended drug sensitivity protocol prescribed by the manufacturer (BACTEC 460 TB system: Product & Procedure Manual, MA 0029, 1996; Becton Dickinson Co., USA). Briefly the procedure is described below. • (a) The 12 B vials as provided by the manufacture were pre-tested prior to inoculation to establish the recommended CO2 atmosphere. […] After mixing thoroughly, 0.1 ml of this dilution was added into the control 12 B vial (without a drug). • (d) Biosafety precautions were taken as recommended by the manufacturer. • (e) Vials were tested daily in BACTEC 460 TB system for 12 days at approximately the same time each day as recommended by the manufacturer. The mycobacterial growth is expressed as Growth Index (GI) and compared to that of the control vials (antibiotic alone).

Series [8] is described as follows: Bioavailability test using gastro-intestinal epithelium (U-tube). It is filed as in vitro ADME, goat. The following applies: Vitamine B 12, in combination; Figure 3. The source says: Specially designed U-tubes of glass consisting of two components (opposite-L type) were used in which one open end of an L-shaped was tapered to fit within the end of the other L-tube (as described in US Patent # 6,410,059). The membrane of goat gut (initial part) was stretched and fixed to act as the barrier between the two ends such that by joining the two L-tubes, a U-tube was made. Sterile distilled water was then filled in both the sides to equal height/level. The antibiotic/compound was added to the donor tube (tapered) and through spectro-photometer, the transfer of molecule was observed using UV and visible absorption maxima of the respective molecules by taking the OD at defined wavelengths (264 nm for isoniazid).

In series [9] the test system is Escherichia coli, CA 8000. Put plainly: Enhancement of adsorption of λ phage on bacteria. The following applies: cells pretreated with niaziridin @ 1 ug/ml.
Description: Overnight grown bacterial culture (Escherichia coli, CA 8000) was divided into 5 ml of aliquot each in screw cap tubes. One of the tube with the bacterial culture was treated with niaziridin to a final concentration of 1µg/ml. Both the control and the treated tubes were incubated at 37°C for 4 hours. The cultures were then infected with λ phage (MOI=10) for 10minutes at 37°C (for adsorption) followed by centrifugation at 10000 RPM for 10 minutes at 4°C.
The supernatant and the pellets for both treated and untreated cultures were then compared for the phage titer by plating on top agar containing sensitive bacteria at different dilutions.
Series [10] relates to E.coli DH5α. Put plainly: Enhancement of bacterial transformation with pUC18 plasmid DNA, strain DH5α.
Description: Overnight grown bacterial E.coli DH5α (Sambrook at al^28) cells were diluted to 10 folds in growth medium and treated with niaziridin @1-10µg/ml for 4 hours at 37°C in a shaker (200 RPM).
These log phase cells were then treated with calcium chloride to induce competence and then transformed with pUC18 plasmid DNA and plated on Luria agar plates containing 100µg/ml ampicillin.
The colonies thus appeared, on the plates for both treated and untreated cultures were scored.
In series [11] the test system is E.coli CA8000. Put plainly: Enhancement of bacterial transformation with pUC18 plasmid DNA, strain CA8000.
Where [12] appears, read: cells pre treated with niaziridin at 1 ug/ml.
[13] abbreviates: cells pre treated with niaziridin at 10 ug/ml.

Take `CC1(C)S[C@@H]2[C@H](NC(=O)[C@H](N)c3ccccc3)C(=O)N2[C@H]1C(=O)O` [Amp, ampicillin]: the “% Survival” value in series [1] is listed as 3.69%. For the same compound, the Titre in [2] (Amp (0.01)) is 2.9x10^8; in [3] (Amp (0.1)) it was 1.0x10^8.

Take `Clc1ccccc1C(c1ccccc1)(c1ccccc1)n1ccnc1` [Clotrimazole, clotrimazole]: the “Cfu / ml at 36 h” value in series [4] (clotrimazole 0.5ug/ml, alone or with Niaziridin 10ug/ml, 36 h) was 23.6 x 10^5 Cfu / ml.

Take `CCn1cc(C(=O)O)c(=O)c2ccc(C)nc21` [Nal, nalidixic acid]: the Titre in series [2] (Nal (2.0)) was 3.1x10^7; in [3] (Nal (1.0)), 3.7x10^8.

Take `CO[C@H]1/C=C/O[C@@]2(C)Oc3c(C)c(O)c4c(O)c(c(/C=N/N5CCN(C)CC5)c(O)c4c3C2=O)NC(=O)/C(C)=C\C=C\[C@H](C)[C@H](O)[C@@H](C)[C@@H](O)[C@@H](C)[C@H](OC(C)=O)[C@@H]1C` [Rif, rifampicin]: the values for the Titre in series [2] (Rif (0.05)) and in [3] (Rif (0.05)) were 2.1x10^8 and 1.3x10^7, respectively.

Consider `CN(C)[C@@H]1C(=O)C(C(N)=O)=C(O)[C@@]2(O)C(=O)C3=C(O)c4c(O)cccc4[C@@](C)(O)[C@H]3C[C@@H]12` [Tet, tetracycline], for which the Titre is on record as 7.0x10^7 in series [2] (Tet (1.0)) and 1.2x10^8 in [3] (Tet (2.0)).

`COc1ccc2cc3[n+](cc2c1OC)CCc1cc2c(cc1-3)OCO2` [berberine]: the “increase of antimicrobial activity of berberine” value in series [5] is given as 200 folds.

For the compound `CCOC(=S)NCc1ccc(OC2OC(C)C(O)C(O)C2O)cc1` (centres unmarked) [niazimicin], the “hypotensive and bradycardiac effect” value in series [6] is “produced hypotensive and bradycardiac effect”.

With `COC(=S)NCc1ccc(O[C@@H]2O[C@@H](C)[C@H](O)[C@@H](O)[C@H]2O)cc1` [niazinin A], the “hypotensive and bradycardiac effect” value in series [6] is “produced hypotensive and bradycardiac effect”.

As for niaziminin A, the “hypotensive and bradycardiac effect” value in series [6] was “produced hypotensive and bradycardiac effect”.

niaziminin B: in series [6], the “hypotensive and bradycardiac effect” value is “produced hypotensive and bradycardiac effect”.

Turning to niazinin B, in series [6], the “hypotensive and bradycardiac effect” value is “produced hypotensive and bradycardiac effect”.

On to niaziridin, for which the “enhancement of antimycobacterial activity of isoniazid (Growth Index)” value in series [7] (in combination with isoniazid, Figure 2) is “able to enhance the antimycobacterial activity”. Besides, the “enhancement of antimycobacterial activity of rifampicin (Growth Index)” value in [7] (in combination with rifampicin, Figure 1) is “able to enhance the antimycobacterial activity”. In [8], the “uptake of nutrients through the intestinal gut membrane” value is “able to facilitate the uptake of nutrients like Vitamine B 12 through the intestinal gut membrane”. In addition, the “Pellet (10^7pfu)” value is given as 7.7 10^7pfu in series [9] (MOI 5) and 18.0 10^7pfu in series [9] (MOI 10). In addition, the “Supernatant (10^7pfu)” value was 7.7 10^7pfu in series [9] (MOI 5) and 8.0 10^7pfu in series [9] (MOI 10). For the same compound, the “enhancement of the antifungal activity of clotrimazole” value in [4] (in combination, observed only at 10ug/ml of the compound) was 5-6 folds. The “Fold enhancement in DNA transformation” value in [10] (setting [12]) came to 1.9 Fold; in series [10] (setting [13]), 2.3 Fold; in series [11] (setting [12]) it was 1.9 Fold; in series [11] (setting [13]), 5.5 Fold. The “Titre (10^4)” value in series [10] (setting [12]) was 16.0 10^4; in series [10] (setting [13]), 20.0 10^4. In addition, the “Titre (10^3)” value in series [11] (setting [12]) is 8.30 10^3; in [11] (setting [13]), 24.0 10^3.
